Data from ChEMBL document CHEMBL4715735, “Sesquiterpenes from Inula japonica with Inhibitory Effects on Nitric Oxide Production in Murine Macrophage RAW 264.7 Cells” (J Nat Prod, 2016).

system: RAW264.7; test: Inhibition of LPS-induced NO production in mouse RAW264.7 cells incubated for 24 hrs by Griess reagent based assay; format: functional, cell-based; conditions: RAW264.7, 24 h

Row | SMILES | IC50
1 | C=C1C(=O)O[C@H]2C[C@@H](C)[C@@H]3[C@@H](OC(C)=O)C[C@H](O)[C@]3(C)[C@@H](OC(C)=O)[C@H]12 | 3200 nM
2 | C=C1C(=O)O[C@H]2C[C@@H](C)[C@@H]3[C@@H](OC(C)=O)C[C@H](OC(C)=O)[C@@]3(C)[C@@H](O)[C@H]12 | 2500 nM
3 | C=C1C(=O)O[C@H]2C[C@H](C)[C@@H]3[C@@H](OC(C)=O)C[C@H](O)[C@@]3(C)C[C@H]12 | 2800 nM
4 | C=C1C(=O)O[C@H]2C[C@@H](C)[C@@H]3[C@H](OC(C)=O)C[C@H](O)[C@@]3(C)[C@@H](O)[C@H]12 | 15400 nM

Other lines, results leading:

Row | IC50 | SMILES
5 | 6600 nM | C=C1C(=O)O[C@@H]2CC(C)=C([C@@H](C)CCCOC(C)=O)[C@@H](OC(=O)C[C@H](C)CC)[C@H]12
6 | 11600 nM | COc1ccc2c(c1)c(CC(=O)O)c(C)n2C(=O)c1ccc(Cl)cc1 [INDOMETHACIN]
7 | 2500 nM | C=C1C(=O)O[C@H]2C[C@@H](C)[C@@H]3CC[C@H](O)[C@@]3(C)C[C@H]12 [PSEUDOGUAIANOLIDE]
8 | 2000 nM | C=C1C(=O)O[C@@H]2C[C@H](C)C(CCC(C)=O)=CC[C@H]12 [TOMENTOSIN]
